In patent US20130345218A1 (Vertex Pharmaceuticals Incorporated, priority 2010, published 2013):

What was measured:
[1] = tested on: influenza A virus (A/PR/8/34) minus-strand viral RNA; assay: microbe, parasite or virus in culture; type: cell-based; conditions: Influenza A virus, PR/8; mean EC50 (mean all); viral RNA by bDNA; read-out: bDNA EC50
[2] = tested on: influenza A virus (A/PR/8/34); assay: microbe, parasite or virus in culture; type: cell-based; conditions: Influenza A virus, PR/8, MDCK, 72 h, mean IC50 (mean all); MDCK cells, A/PR/8/34, 72 hours; read-out: Flu, MDCK IC50

Compound	EC50 [1] [µM]	IC50 [2] [µM]
O=C(O)[C@H]1C2CCC(CC2)[C@@H]1Nc1cnnc(-c2c[nH]c3ncc(F)cc23)n1 [Compound I-46]	< 3.3	< 3.3
N#Cc1cc(F)c(N[C@H]2CCC[C@@H](NC(=O)N3CC[C@@H](F)C3)C2)nc1-c1c[nH]c2ncc(F)cc12 [Compound I-14, (R)—N-((1R,3S)-3-((5-cyano-3-fluoro-6-(5-fluoro-1H-pyrrolo[2,3-b]pyridin-3-yl)pyridin-2-yl)amino)cyclohexyl)-3-fluoropyrrolidine-1-carboxamide]	< 3.3	< 3.3
N#Cc1cnc(N[C@H]2CCC[C@@H](C(=O)O)C2)nc1-c1c[nH]c2ncc(Cl)cc12 [Compound I-3, (1R,3S)-3-((4-(5-chloro-1H-pyrrolo[2,3-b]pyridin-3-yl)-5-cyanopyrimidine-2-yl)amino)-cyclohexanecarboxylic acid]	< 3.3	< 3.3
CC[C@]1(C(=O)O)CCCC[C@@H]1Nc1ncc(C#N)c(-c2c[nH]c3ncc(C(F)(F)F)cc23)n1 [Compound I-8, (1S,2S)-2-((5-cyano-4-(5-(trifluoromethyl)-1H-pyrrolo[2,3-b]pyridin-3-yl)pyrimidin-2-yl)amino)-1-ethylcyclohexanecarboxylic acid]	< 3.3	< 3.3
CN(C)C(=O)N[C@@H]1CCC[C@H](Nc2nc(-c3c[nH]c4ncc(F)cc34)c(F)cc2F)C1 [Compound I-17, 3-((1R,3S)-3-((3,5-difluoro-6-(5-fluoro-1H-pyrrolo[2,3-b]pyridin-3-yl)pyridin-2-yl)amino)cyclohexyl)-1,1-dimethylurea]	< 3.3	< 3.3
O=C(O)[C@H]1C2CCC(CC2)[C@@H]1Nc1cc(C(F)(F)F)cc(-c2c[nH]c3ncc(F)cc23)n1 [Compound I-40]	< 3.3	< 3.3
CC1(C(=O)N[C@@H]2CCC[C@H](Nc3ncc(C#N)c(-c4c[nH]c5ncc(C(F)(F)F)cc45)n3)C2)CC1 [Compound I-6, N-((1R,3S)-3-((5-cyano-4-(5-(trifluoromethyl)-1H-pyrrolo[2,3-b]pyridin-3-yl)pyrimidin-2-yl)amino)cyclohexyl)-1-methylcyclopropanecarboxamide]	< 3.3	< 3.3
N#Cc1cnc(N[C@H]2CCCC[C@@H]2C(=O)O)nc1-c1c[nH]c2ncc(C(F)(F)F)cc12 [Compound I-7, (1S,2S)-2-((5-cyano-4-(5-(trifluoromethyl)-1H-pyrrolo[2,3-b]pyridin-3-yl)pyrimidin-2-yl)amino)cyclohexanecarboxylic acid]	< 3.3	< 3.3
O=C(O)[C@@H]1C2CCC(CC2)[C@H]1Nc1cnnc(-c2c[nH]c3ncc(F)cc23)n1 [Compound I-45]	> 3.3	≥ 3.3
O=C(O)[C@H]1C2CCC(CC2)[C@@H]1Nc1cc(-c2c[nH]c3ncc(F)cc23)ncc1F (racemic) [Compound I-50, (+/−)-(2,3)-trans-3-((5-fluoro-2-(5-fluoro-1H-pyrrolo[2,3-b]pyridin-3-yl)pyridin-4-yl)amino)bicyclo[2.2.2]octane-2-carboxylic acid]	< 3.3	< 3.3
O=C(N[C@@H]1CCC[C@H](Nc2nc(-c3c[nH]c4ncc(F)cc34)c(F)cc2F)C1)N1CCCC1 [Compound I-15, N-((1R,3S)-3-((3,5-difluoro-6-(5-fluoro-1H-pyrrolo[2,3-b]pyridin-3-yl)pyridin-2-yl)amino)cyclohexyl)pyrrolidine-1-carboxamide]	< 3.3	< 3.3
O=C(N[C@@H]1CCC[C@H](Nc2nc(-c3c[nH]c4ncc(F)cc34)c(C(F)(F)F)cc2F)C1)N1CCCC1 [Compound I-19]	< 3.3	< 3.3
O=C(N[C@@H]1CCC[C@H](Nc2nc(-c3c[nH]c4ncc(F)cc34)c(C(F)(F)F)cc2F)C1)N1CCOCC1 [Compound I-22, N-[(1R,3S)-3-[[3-fluoro-6-(5-fluoro-1H-pyrrolo[2,3-b]pyridin-3-yl)-5-(trifluoro-methyl)-2-pyridyl]amino]cyclohexyl]morpholine-4-carboxamide]	< 3.3	< 3.3
